Assay results published in patent US6280715A, “Cosmetic composition useful notably for the skin whitening and melanogenesis inhibiting agent containing such a cosmetic composition” (Exsymol S.A.M., priority 1997, dated 2001).

Assays:
tyrosinase = assay: in vitro inhibition of melanin formation from L-DOPA by tyrosinase; type: biochemical; details: product diluted at 1.10^-3 mole.l^-1 (2 ml in mixture), pH 6.8, 4 hours at 37° C., optical density at 400 nm
Procedure: The reference used is the ascorbic acid in solution at 0.3.10^-3 mole l^-1.
2 ml of a L-DOPA solution, 1.25 ml of tyrosinase (2500 units/ml), 2 ml of product (Ia) diluted at 1.10^-3 mole.l^-1 are mixed together, and the mixture is completed with 20 ml of phosphate buffer (NaH2 PO4 0.1 mole l^-1 +Na2 HPO4 0.1 mole.l^-1, pH=6.8). The mixture is stirred for 4 hours at 37° C., then allowed to cool at room temperature for one night, shielded from light.
1 ml of concentrated hydrochloric acid is added and the mixture is centrifuged at 4000 rpm for 5 min. The pellet is washed with 10 ml of distilled water then centrifuged a second time. A reflux is made on the pellet with concentrated acid HCL 6N for 48 hours. The dried pellet is dissolved in 10 ml of toluene, exposed to ultrasounds for 2 min, put 2 hours at 37° C. then exposed to ultrasounds again for 5 min. The optical density is measured at 400 nm.

S91 melanoma cells = assay: melanin content of UV-irradiated S91 melanoma cell cultures; type: cell-based; details: Mus musculus, S91, light or radiation study
Procedure: The inhibiting activity on melanin, of the 1-amino-ethylphosphinic acid (Ia) is studied on S91 melanoma cells cultures.
The model of study was finalized by Gilchrest (1987).
The cultured cells are purchased from a Cloudman melanom.
As ordinary melanocytes, they respond to UV stimuli by an increase of melanogenesis.
The melanogenesis evaluation is made through the melanin content and the activity of enzymes involved in this metabolism: tyrosinase and dopa-tautomerase.
S91 cells are plated in P60 dishes at a density of […] per dish and maintained in Dubelcco's modified Eagle's medium and provided with 10% of calf serum. When the cells have reached about 50% of confluence, they are exposed to a UV irradiation of 10 mJ/cm^2 at 285±5 nm. During irradiation, the medium is replaced with a salin phosphate solution (PBS) to eliminate the forming of toxical derivatives. Immediately after irradiation, the PBS is replaced with fresh medium/7% of calf serum with or without the active agent. After a 16 hours incubation, the medium is replaced with ordinary medium with or without the active agent. […]
The melanin content is then determined: melanocytes are trypsinized, twice washed with PBS and dissolved in 0.8 ml of NaOH 1N, when strongly vortexed for 10-15 min and heated at 60-80° C. The melanin concentration is determined based on the absorbance at 475 nm.

| SMILES | percentage of inhibition of melanin (tyrosinase) | inhibition at 500 µM (S91 melanoma cells; read-out: decrease of melanin rate in the cells) | inhibition at 3300 µM (S91 melanoma cells; kojic acid at 3.3.10^-3 mole.l^-1, UV irradiation 10 mJ/cm^2, absorbance at 475 nm, read-out: decrease of melanin content in the cells) |
| --- | --- | --- | --- |
| CC(N)[PH](=O)O (stereo not shown) [(Ia), 1-amino-ethylphosphinic acid] | 46% | 47.2% | – |
| CC(C)CC(N)[PH](=O)O (stereo not shown) [(Ib), 1-amino-3-methylbutylphosphinic acid] | 44% | – | – |
| O=c1cc(CO)occ1O [kojic acid, reference compound] | – | – | 45.2% |
